Measured values reported in PubChem BioAssay AID1259407 (Chemical Carcinogenesis Research Information System (CCRIS), 2018).
The source made the active and inactive calls. The rule behind the calls is not given here.

System: CCRIS mutagenicity, Ames/micronucleus/aberration tests
Test: CCRIS mutagenicity studies
[1] = Test System: AMES SALMONELLA TYPHIMURIUM, Strain/Indicator: TA98, Metabolic Activation: NONE, Method: PREINCUBATION
[2] = Test System: AMES SALMONELLA TYPHIMURIUM, Strain/Indicator: TA100, Metabolic Activation: NONE, Method: PREINCUBATION
[3] = Test System: AMES SALMONELLA TYPHIMURIUM, Strain/Indicator: TA1535, Metabolic Activation: NONE, Method: PREINCUBATION

In the case of `CCc1ccccc1O`, the mutagenic call (Test System: AMES SALMONELLA TYPHIMURIUM, Strain/Indicator: TA97, Metabolic Activation: HAMSTER, LIVER, S-9, AROCLOR 1254 (10 OR 30%), Method: PREINCUBATION) is reported as “inactive; negative”, the mutagenic call (Test System: AMES SALMONELLA TYPHIMURIUM, Strain/Indicator: TA97, Metabolic Activation: NONE, Method: PREINCUBATION) is reported as “inactive; negative” and the mutagenic call (Test System: AMES SALMONELLA TYPHIMURIUM, Strain/Indicator: TA97, Metabolic Activation: RAT, LIVER, S-9, AROCLOR 1254 (10 OR 30%), Method: PREINCUBATION) is reported as “inactive; negative”. The mutagenic call (Test System: AMES SALMONELLA TYPHIMURIUM, Strain/Indicator: TA98, Metabolic Activation: HAMSTER, LIVER, S-9, AROCLOR 1254 (10 OR 30%), Method: PREINCUBATION) was “inactive; negative”, the mutagenic call [1] was “inactive; negative” and the mutagenic call (Test System: AMES SALMONELLA TYPHIMURIUM, Strain/Indicator: TA98, Metabolic Activation: RAT, LIVER, S-9, AROCLOR 1254 (10 OR 30%), Method: PREINCUBATION) was “inactive; negative”. The mutagenic call (Test System: AMES SALMONELLA TYPHIMURIUM, Strain/Indicator: TA100, Metabolic Activation: HAMSTER, LIVER, S-9, AROCLOR 1254 (10 OR 30%), Method: PREINCUBATION) was “inactive; negative”, the mutagenic call [2] was “inactive; negative” and the mutagenic call (Test System: AMES SALMONELLA TYPHIMURIUM, Strain/Indicator: TA100, Metabolic Activation: RAT, LIVER, S-9, AROCLOR 1254 (10 OR 30%), Method: PREINCUBATION) was “inactive; negative”. The mutagenic call (Test System: AMES SALMONELLA TYPHIMURIUM, Strain/Indicator: TA1535, Metabolic Activation: HAMSTER, LIVER, S-9, AROCLOR 1254 (10 OR 30%), Method: PREINCUBATION) was “inactive; negative”, the mutagenic call [3] was “inactive; negative” and the mutagenic call (Test System: AMES SALMONELLA TYPHIMURIUM, Strain/Indicator: TA1535, Metabolic Activation: RAT, LIVER, S-9, AROCLOR 1254 (10 OR 30%), Method: PREINCUBATION) was “inactive; negative”.

With `CCCOc1ccc(N)cc1N` the mutagenic call (Test System: AMES SALMONELLA TYPHIMURIUM, Strain/Indicator: TA97, Metabolic Activation: RAT, LIVER, S-9, AROCLOR 1254 (4%), Method: STANDARD PLATE) was “inactive; negative”, the mutagenic call (Test System: AMES SALMONELLA TYPHIMURIUM, Strain/Indicator: TA97, Metabolic Activation: RAT, LIVER, S-9, AROCLOR 1254 (10%), Method: STANDARD PLATE) was “active; positive” and the mutagenic call (Test System: AMES SALMONELLA TYPHIMURIUM, Strain/Indicator: TA1537, Metabolic Activation: RAT, LIVER, S-9, AROCLOR 1254 (4 OR 10%), Method: STANDARD PLATE) was “active; positive”. For the same compound, the mutagenic call (Test System: AMES SALMONELLA TYPHIMURIUM, Strain/Indicator: TA1538, Metabolic Activation: RAT, LIVER, S-9, AROCLOR 1254 (4 OR 10%), Method: STANDARD PLATE) was “active; positive”.

In the case of `B#B`, the mutagenic call (Test System: AMES SALMONELLA TYPHIMURIUM, Strain/Indicator: TA98, Metabolic Activation: HAMSTER, LIVER, S-9, AROCLOR 1254 (10%), Method: PREINCUBATION) is reported as “inactive; negative”, the mutagenic call (Test System: AMES SALMONELLA TYPHIMURIUM, Strain/Indicator: TA98, Metabolic Activation: NONE, Method: GAS EXPOSURE) is reported as “active; positive” and the mutagenic call [1] is reported as “inactive; negative”. For the same compound, the mutagenic call (Test System: AMES SALMONELLA TYPHIMURIUM, Strain/Indicator: TA98, Metabolic Activation: RAT LIVER S-9, PHENOBARBITAL AND BETA-NAPHTHOFLAVONE, Method: GAS EXPOSURE) was “active; positive”, the mutagenic call (Test System: AMES SALMONELLA TYPHIMURIUM, Strain/Indicator: TA98, Metabolic Activation: RAT, LIVER, S-9, AROCLOR 1254 (10%), Method: PREINCUBATION) was “inactive; negative” and the mutagenic call (Test System: AMES SALMONELLA TYPHIMURIUM, Strain/Indicator: TA98, Metabolic Activation: RAT, LIVER, S-9, PHENOBARBITAL AND 5,6-BENZOFLAVONE, Method: GAS EXPOSURE) was “active; positive”. For the same compound, the mutagenic call (Test System: AMES SALMONELLA TYPHIMURIUM, Strain/Indicator: TA100, Metabolic Activation: HAMSTER, LIVER, S-9, AROCLOR 1254 (10%), Method: PREINCUBATION) was “inactive; negative”, the mutagenic call [2] was “inactive; negative” and the mutagenic call (Test System: AMES SALMONELLA TYPHIMURIUM, Strain/Indicator: TA100, Metabolic Activation: RAT LIVER S-9, PHENOBARBITAL AND BETA-NAPHTHOFLAVONE, Method: GAS EXPOSURE) was “active; positive”. The mutagenic call (Test System: AMES SALMONELLA TYPHIMURIUM, Strain/Indicator: TA100, Metabolic Activation: RAT, LIVER, S-9, AROCLOR 1254 (10%), Method: PREINCUBATION) was “inactive; negative”, the mutagenic call (Test System: AMES SALMONELLA TYPHIMURIUM, Strain/Indicator: TA100, Metabolic Activation: RAT, LIVER, S-9, PHENOBARBITAL AND 5,6-BENZOFLAVONE, Method: GAS EXPOSURE) was “active; positive” and the mutagenic call (Test System: AMES SALMONELLA TYPHIMURIUM, Strain/Indicator: TA1535, Metabolic Activation: HAMSTER, LIVER, S-9, AROCLOR 1254 (10%), Method: PREINCUBATION) was “inactive; negative”. For the same compound, the mutagenic call (Test System: AMES SALMONELLA TYPHIMURIUM, Strain/Indicator: TA1535, Metabolic Activation: NONE, Method: GAS EXPOSURE) was “inactive; negative”, the mutagenic call [3] was “inactive; negative” and the mutagenic call (Test System: AMES SALMONELLA TYPHIMURIUM, Strain/Indicator: TA1535, Metabolic Activation: RAT LIVER S-9, PHENOBARBITAL AND BETA-NAPHTHOFLAVONE, Method: GAS EXPOSURE) was “inactive; negative”. For the same compound, the mutagenic call (Test System: AMES SALMONELLA TYPHIMURIUM, Strain/Indicator: TA1535, Metabolic Activation: RAT, LIVER, S-9, AROCLOR 1254 (10%), Method: PREINCUBATION) was “inactive; negative”, the mutagenic call (Test System: AMES SALMONELLA TYPHIMURIUM, Strain/Indicator: TA1535, Metabolic Activation: RAT, LIVER, S-9, PHENOBARBITAL AND 5,6-BENZOFLAVONE, Method: GAS EXPOSURE) was “inactive; negative” and the mutagenic call (Test System: AMES SALMONELLA TYPHIMURIUM, Strain/Indicator: TA1537, Metabolic Activation: HAMSTER, LIVER, S-9, AROCLOR 1254 (10%), Method: PREINCUBATION) was “inactive; negative”. For the same compound, the mutagenic call (Test System: AMES SALMONELLA TYPHIMURIUM, Strain/Indicator: TA1537, Metabolic Activation: NONE, Method: GAS EXPOSURE) was “inactive; negative”, the mutagenic call (Test System: AMES SALMONELLA TYPHIMURIUM, Strain/Indicator: TA1537, Metabolic Activation: NONE, Method: PREINCUBATION) was “inactive; negative” and the mutagenic call (Test System: AMES SALMONELLA TYPHIMURIUM, Strain/Indicator: TA1537, Metabolic Activation: RAT LIVER S-9, PHENOBARBITAL AND BETA-NAPHTHOFLAVONE, Method: GAS EXPOSURE) was “inactive; negative”. For the same compound, the mutagenic call (Test System: AMES SALMONELLA TYPHIMURIUM, Strain/Indicator: TA1537, Metabolic Activation: RAT, LIVER, S-9, AROCLOR 1254 (10%), Method: PREINCUBATION) was “inactive; negative”, the mutagenic call (Test System: AMES SALMONELLA TYPHIMURIUM, Strain/Indicator: TA1537, Metabolic Activation: RAT, LIVER, S-9, PHENOBARBITAL AND 5,6-BENZOFLAVONE, Method: GAS EXPOSURE) was “inactive; negative” and the mutagenic call (Test System: E. COLI, Strain/Indicator: WP2 UVRA, Metabolic Activation: NONE, Method: GAS EXPOSURE) was “inactive; negative”. For the same compound, the mutagenic call (Test System: E. COLI, Strain/Indicator: WP2 UVRA, Metabolic Activation: RAT, LIVER, S-9, PHENOBARBITAL AND 5,6-BENZOFLAVONE, Method: GAS EXPOSURE) was “active; positive”, the mutagenic call (Test System: E.COLI, Strain/Indicator: WP2UVRA, Metabolic Activation: NONE, Method: GAS EXPOSURE) was “inactive; negative” and the mutagenic call (Test System: E.COLI, Strain/Indicator: WP2UVRA, Metabolic Activation: RAT LIVER S-9, PHENOBARBITAL AND BETA-NAPHTHOFLAVONE, Method: GAS EXPOSURE) was “active; positive”.

In the case of `ClCc1ccc(CCl)cc1`, the mutagenic call (Test System: AMES SALMONELLA TYPHIMURIUM, Strain/Indicator: TA98, Metabolic Activation: NONE, Method: STANDARD PLATE) is reported as “inactive; negative”.
